System: 4T1 or E0771 tumors
Assay: Tumor growth under bosentan monotherapy (dose response studies)
Type: in vivo, mice
Details: bosentan monotherapy at any dose
Method: Mice bearing syngeneic, orthotopic triple negative breast cancer (TNBC) were treated with a range of sub-therapeutic doses of bosentan, from 0.2 mg/kg to 10 mg/kg of body weight. Orthotopic models for murine mammary tumors were generated by implantation of 5×10^4 4T1 or E0771 cancer cells in 40 μl of serum-free medium into the third mammary fat pad of 6-8-week-old BALB/c and C57BL/6 female mice, respectively. 4T1 (ATCC® CRL-2539TH) and E0771 (94A001, CH3 BioSystems) mouse breast adenocarcinoma cell lines were purchased form ATCC and CH3 BioSystems, respectively. The cells were maintained at 37° C./5% CO2 in Roswell Park Memorial Institute medium (RPMI-1640, LM-R1637, Biosera) supplemented with 10% fetal bovine serum (FBS, FB-1001H, biosera) and 1% antibiotics (A5955, Sigma). Bosentan (bosentan Hydrate (S3051, Selleckchem) was dissolved in ddH2O containing 2% DMSO (GK2245, Glentham Life Science), 30% PEG300 (S6704, Selleckchem) and 2% Tween 80 (S6702, Selleckchem)) 1 mg/kg, 5 mg/kg, 10 mg/kg or equal volume of diluent (control group) was administered by intraperitoneal injection (i.p.) once a day for 10 days, starting from once the tumor volumes reached an average size of 100 mm^3. Tumors were excised when they reached an average size of 500 mm^3. Tissue stiffness was then measured non-invasively and longitudinally using ultrasound elastography. […]

In the case of `COc1ccccc1Oc1c(NS(=O)(=O)c2ccc(C(C)(C)C)cc2)nc(-c2ncccn2)nc1OCCO` [bosentan, 4-tert-butyl-N-[6-(2-hydroxy-ethoxy)-5-(2-methoxy-phenoxy)-2-(pyrimidin-2-yl)pyrimidin-4-yl] benzenesulfonamide], the tumor growth is reported as “did not affect”.

From patent US20240024317A1, “CANCER TREATMENT USING BOSENTAN IN COMBINATION WITH A CHECKPOINT INHIBITOR” (Materia Therapeutics Inc., priority 2020, published 2024)
